Details: 333.15 K, Liquid, Vibrating tube method

FC(C(F)(F)F)C(F)(F)F [1,1,1,2,3,3,3-heptafluoropropane]
Details | mass density [kg/m3]
14224 kPa | 1356.7
14266 kPa | 1357
14291 kPa | 1357.2
14328 kPa | 1357.4
14371 kPa | 1357.7
14400 kPa | 1357.8
14435 kPa | 1358.2
14458 kPa | 1358.3
14483 kPa | 1358.5
14514 kPa | 1358.6
14545 kPa | 1358.8
14575 kPa | 1359.1
14609 kPa | 1359.3
14631 kPa | 1359.4
14665 kPa | 1359.7
14691 kPa | 1359.8
14717 kPa | 1360
14746 kPa | 1360.2
14768 kPa | 1360.3
14798 kPa | 1360.5
15205 kPa | 1363.1
15236 kPa | 1363.4
15290 kPa | 1363.8
15717 kPa | 1366.6
15745 kPa | 1366.7
15780 kPa | 1366.8
15812 kPa | 1367.1
15836 kPa | 1367.2
15868 kPa | 1367.4
15899 kPa | 1367.6
15926 kPa | 1367.8
16438 kPa | 1370.9
16464 kPa | 1371.3
16489 kPa | 1371.4
16519 kPa | 1371.5
16626 kPa | 1372.2
16683 kPa | 1372.5
16707 kPa | 1372.8
16730 kPa | 1372.7
16761 kPa | 1373
17906 kPa | 1379.9
17932 kPa | 1379.9
17962 kPa | 1380.3
17993 kPa | 1380.3
18015 kPa | 1380.5
18050 kPa | 1380.7
18080 kPa | 1380.9
18108 kPa | 1381
19508 kPa | 1388.9
19537 kPa | 1389
19563 kPa | 1389.2
19597 kPa | 1389.4
19624 kPa | 1389.6
19650 kPa | 1389.8
19677 kPa | 1389.8
20749 kPa | 1395.7
20777 kPa | 1395.9
20814 kPa | 1396
20842 kPa | 1396.2
20873 kPa | 1396.4
20901 kPa | 1396.5
20931 kPa | 1396.6
20957 kPa | 1396.9
20979 kPa | 1396.9
21008 kPa | 1397
21033 kPa | 1397.1
21063 kPa | 1397.3
21088 kPa | 1397.5
21120 kPa | 1397.5
21148 kPa | 1397.8
21172 kPa | 1397.9
21205 kPa | 1398
21229 kPa | 1398.2
21270 kPa | 1398.3
21296 kPa | 1398.6
21327 kPa | 1398.7
21360 kPa | 1398.9
21397 kPa | 1399.2
21645 kPa | 1400.3
21675 kPa | 1400.5
21704 kPa | 1400.7
21740 kPa | 1400.8
21764 kPa | 1401
21831 kPa | 1401.4
21897 kPa | 1401.7
21932 kPa | 1401.8
22798 kPa | 1406.2
22829 kPa | 1406.3
22856 kPa | 1406.5
22880 kPa | 1406.7
22918 kPa | 1406.7
22954 kPa | 1407
23854 kPa | 1411.4
25147 kPa | 1417.6
25181 kPa | 1417.7
25224 kPa | 1417.9
25251 kPa | 1417.9
25279 kPa | 1418.1
25312 kPa | 1418.3
25354 kPa | 1418.4
25387 kPa | 1418.6
25415 kPa | 1418.7

Source: the NIST ThermoML archive (doi:10.1021/je700260f)
